Experimental data published in PubChem BioAssay (NCI).
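Interpolation was linear, between the two tested concentrations surrounding the appropriate level; five concentrations were tested over 48 hours in 96-well plates. Abbreviation: GI50, concentration required for 50% inhibition of growth. TGI is the concentration that stops growth completely.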

Key:
Assay in all cases: NCI-60 cell line screen, 48 h
RPMI-8226 leukemia = system: RPMI-8226 leukemia
786-0 renal = system: 786-0 renal
T-47D breast = system: T-47D breast
SN12C renal = system: SN12C renal
HT29 colon = system: HT29 colon
NCI-H23 lung = system: NCI-H23 lung
HCC-2998 colon = system: HCC-2998 colon
SK-MEL-5 melanoma = system: SK-MEL-5 melanoma
HCT-15 colon = system: HCT-15 colon
SK-MEL-28 melanoma = system: SK-MEL-28 melanoma
BT-549 breast = system: BT-549 breast
EKVX NSCLC = system: EKVX NSCLC
SK-OV-3 ovarian = system: SK-OV-3 ovarian
UACC-62 melanoma = system: UACC-62 melanoma
SK-MEL-2 melanoma = system: SK-MEL-2 melanoma
TK-10 renal = system: TK-10 renal
HS 578T breast = system: HS 578T breast
K-562 leukemia = system: K-562 leukemia
OVCAR-4 ovarian = system: OVCAR-4 ovarian
RXF 393 renal = system: RXF 393 renal
SF-268 CNS = system: SF-268 CNS
SF-539 CNS = system: SF-539 CNS
CCRF-CEM leukemia = system: CCRF-CEM leukemia
A549 NSCLC = system: A549 NSCLC
SR leukemia = system: SR leukemia
MOLT-4 leukemia = system: MOLT-4 leukemia
SNB-75 CNS = system: SNB-75 CNS
HCT-116 colon = system: HCT-116 colon
SF-295 CNS = system: SF-295 CNS
COLO 205 colon = system: COLO 205 colon
OVCAR-3 ovarian = system: OVCAR-3 ovarian
UACC-257 melanoma = system: UACC-257 melanoma
SNB-19 CNS = system: SNB-19 CNS
MDA-MB-435 = system: MDA-MB-435
KM12 colon = system: KM12 colon
HL-60(TB) leukemia = system: HL-60(TB) leukemia
LOX IMVI melanoma = system: LOX IMVI melanoma
NCI-H226 lung = system: NCI-H226 lung
DU-145 prostate = system: DU-145 prostate
UO-31 renal = system: UO-31 renal
MCF7 breast = system: MCF7 breast
IGROV1 ovarian = system: IGROV1 ovarian
NCI-H522 lung = system: NCI-H522 lung
HOP-62 NSCLC = system: HOP-62 NSCLC
MDA-MB-231 breast = system: MDA-MB-231 breast
OVCAR-8 ovarian = system: OVCAR-8 ovarian
PC-3 prostate = system: PC-3 prostate
CAKI-1 renal = system: CAKI-1 renal
NCI-H460 lung = system: NCI-H460 lung
ACHN renal = system: ACHN renal
M14 melanoma = system: M14 melanoma
OVCAR-5 ovarian = system: OVCAR-5 ovarian
SW-620 colon = system: SW-620 colon
A498 renal = system: A498 renal
MALME-3M melanoma = system: MALME-3M melanoma
U251 CNS = system: U251 CNS
NCI/ADR-RES ovarian = system: NCI/ADR-RES ovarian

## COc1cc(/C=C/[N+](=O)[O-])cc(Br)c1OC
RPMI-8226 leukemia
  GI50: 2590 nM
  TGI: 6.64 µM
786-0 renal
  GI50: 1950 nM
  TGI: 3.54 µM
T-47D breast
  GI50: 2570 nM
  TGI: 8.48 µM
SN12C renal
  GI50: 3.94 µM
  TGI: 13.1 µM
HT29 colon
  GI50: 1810 nM
  TGI: 3.57 µM
NCI-H23 lung
  GI50: 2060 nM
  TGI: 5.28 µM
HCC-2998 colon
  GI50: 1710 nM
  TGI: 3.15 µM
SK-MEL-5 melanoma
  GI50: 2130 nM
  TGI: 4.93 µM
HCT-15 colon
  GI50: 2680 nM
  TGI: 8.98 µM
SK-MEL-28 melanoma
  GI50: 2390 nM
  TGI: 6.14 µM
BT-549 breast
  GI50: 2770 nM
  TGI: 6.62 µM
EKVX NSCLC
  GI50: 3.32 µM
  TGI: 14.6 µM
SK-OV-3 ovarian
  GI50: 13.4 µM
  TGI: 26.5 µM
UACC-62 melanoma
  GI50: 3.49 µM
  TGI: 12.2 µM
SK-MEL-2 melanoma
  GI50: 2670 nM
  TGI: 5.71 µM
TK-10 renal
  GI50: 3.52 µM
  TGI: 11.5 µM
HS 578T breast
  GI50: 2900 nM
  TGI: 15.9 µM
K-562 leukemia
  GI50: 2210 nM
  TGI: > 100 µM
OVCAR-4 ovarian
  GI50: 7.65 µM
  TGI: 20.8 µM
RXF 393 renal
  GI50: 1610 nM
  TGI: 3.01 µM
SF-268 CNS
  GI50: 3.64 µM
  TGI: 13.2 µM
SF-539 CNS
  GI50: 2490 nM
  TGI: 6.62 µM
CCRF-CEM leukemia
  GI50: 6.65 µM
  TGI: 44.5 µM
A549 NSCLC
  GI50: 7.84 µM
  TGI: 22 µM
SR leukemia
  GI50: 2020 nM
  TGI: > 100 µM
MOLT-4 leukemia
  GI50: 3.52 µM
  TGI: 53.6 µM
SNB-75 CNS
  GI50: 1850 nM
  TGI: 5 µM
HCT-116 colon
  GI50: 1780 nM
  TGI: 3.22 µM
SF-295 CNS
  GI50: 2640 nM
  TGI: 9.88 µM
COLO 205 colon
  GI50: 2170 nM
  TGI: 4.58 µM
OVCAR-3 ovarian
  GI50: 3.23 µM
  TGI: 10.2 µM
UACC-257 melanoma
  GI50: 2880 nM
  TGI: 10.4 µM
SNB-19 CNS
  GI50: 6.93 µM
  TGI: 19.2 µM
MDA-MB-435
  GI50: 2330 nM
  TGI: 6.15 µM
KM12 colon
  GI50: 3000 nM
  TGI: 10.1 µM
HL-60(TB) leukemia
  GI50: 1620 nM
  TGI: > 100 µM
LOX IMVI melanoma
  GI50: 899 nM
  TGI: 2180 nM
NCI-H226 lung
  GI50: 16.7 µM
  TGI: 52.8 µM
DU-145 prostate
  GI50: 1800 nM
  TGI: 3.56 µM
UO-31 renal
  GI50: 1860 nM
  TGI: 3.49 µM
MCF7 breast
  GI50: 1930 nM
  TGI: 7.43 µM
IGROV1 ovarian
  GI50: 1840 nM
  TGI: 4.54 µM
NCI-H522 lung
  GI50: 816 nM
  TGI: 2830 nM
HOP-62 NSCLC
  GI50: 3.32 µM
  TGI: 10.1 µM
MDA-MB-231 breast
  GI50: 3.03 µM
  TGI: 8.05 µM
OVCAR-8 ovarian
  GI50: 3.54 µM
  TGI: 13.1 µM
PC-3 prostate
  GI50: 3.5 µM
  TGI: 13.2 µM
CAKI-1 renal
  GI50: 1890 nM
  TGI: 5.23 µM
NCI-H460 lung
  GI50: 3.48 µM
  TGI: 11.4 µM
ACHN renal
  GI50: 2500 nM
  TGI: 6.49 µM
M14 melanoma
  GI50: 1780 nM
  TGI: 3.74 µM
OVCAR-5 ovarian
  GI50: 14.3 µM
  TGI: 30.8 µM
SW-620 colon
  GI50: 1570 nM
  TGI: 3.37 µM
A498 renal
  GI50: 2030 nM
  TGI: 8.53 µM
MALME-3M melanoma
  GI50: 2610 nM
  TGI: 8.13 µM
U251 CNS
  GI50: 1770 nM
  TGI: 3.75 µM
NCI/ADR-RES ovarian
  GI50: 3.62 µM
  TGI: 19.5 µM
